Source: paper PMC11286589, “Population pharmacokinetics and exposure–response analyses of SAF-189s in Chinese patients with ALK+/ROS1+ non-small cell lung cancer” (Frontiers in Pharmacology, 2024)
“And” between values parts separate entries of the source, which are not always exact repeats. Equal entries are not always repeated.

Columns and labels:
[1] = system: tumor xenograft models derived from genetically engineered cells overexpressing ALK rearrangements, ROS1+ rearrangements, or crizotinib-resistant ALK and ROS1 …; set-up: method as in Xia et al., 2021; details: tumor xenograft and CNS tumor models; ref Xia et al., 2021; cited from earlier work
[2] = Population pharmacokinetic (PopPK) model of SAF-189s plasma concentrations (NONMEM); format: in vivo, human
Method: The population PK analysis included data from one phase I study of SAF-189s conducted with healthy subjects (study STL31147; n = 24) and one phase I/II study conducted with Chinese patients having ALK+/ROS1+ advanced NSCLC (study SAF001; n = 299). STL31147 was a single-center, randomized, open-label, two-period (fed and fasting), and two-sequence crossover study on healthy Chinese adults. The volunteers received SAF-189s at a dose of 160 mg orally once in each period, with a washout period of 14 days. Blood samples (3 mL) were collected after each SAF-189s administration at 0 (predose), 1, 2, 3, 4, 6, 8, 10, 12, 24, 48, 72, 120, and 168 h post dosing. SAF001 was a multicenter, open-label, and single-arm phase I/II study to evaluate the safety, tolerability, pharmacokinetics, and antitumor activity of SAF-189s in patients with advanced ALK+ NSCLC (phase I) and ALK+/ROS1+ NSCLC (phase II). In the dose escalation portion, the study treatment included a single-agent 3-day PK run-in period and a continuous treatment period. The dosing regimens were 20, 40, 80, 120, 160, and 210 mg QD for 21 days in 21-day cycles during the continuous treatment period. In phase II, the patients received 80, 120, 160, and 210 mg of SAF-189s (phase IIa) or 160 mg (phase IIb) QD over 21-day cycles.
(§1) All studies were conducted in accordance with the Good Clinical Practice guidelines and Declaration of Helsinki. The protocols were approved by the independent ethics committee of each investigation site, and all subjects provided informed consent. The tumor responses were assessed by the IRC based on the Response Evaluation Criteria in Solid Tumors (RECIST) 1.1 conditions. The exposure–efficacy analyses of SAF-189s were conducted based on data from patients in the SAF001 study to explore the relationships between systemic exposure and efficacy endpoints, including the ORR, PFS, and duration of response (DOR). The exposure–safety analyses of SAF-189s were conducted based on data from patients in the SAF001 study to explore the relationships between the systemic exposure and safety endpoints, including the adverse events (AEs) of interest. In these studies, the SAF-189s plasma concentrations were analyzed using validated liquid chromatography tandem mass spectrometry within the assay range of 0.5–150 ng mL^–1.
Dataset preparation and exploratory graphical analyses were performed using R (version 4.2.0) and SAS® (version 9.4, Institute Inc., Cary, NC, United States). The PK data of SAF-189s were pooled and analyzed using a non-linear mixed-effects model. The PopPK analysis was conducted using NONMEM® software (version 7.3, ICON, Hanover, MD, United States) with first-order conditional estimations with interactions (FOCE-I). Following graphical exploratory analysis, one- and two-compartment models were evaluated; several absorption models were then tested, including first-order, zero-order, sequential zero- and first-order, and parallel first-order models with and without a lag absorption time; based on the characteristics of the elimination phase of the concentration–time profiles of SAF-189s, the linear, non-linear, and time-dependent elimination models ([Lau et al., 2019]; [Kratochwil et al., 2021]) were investigated. Interindividual variance (IIV) was then described as a log-normal distribution, and the covariance between the IIV parameters was assessed. Residual variability was assessed by comparing the proportional, additive, and combined error models. Owing to the low proportion (<1%) of post-administration samples with concentrations below the quantification limit (BQL) of the assay, the BQL data were excluded from the PopPK model development. Model selection was based on the objective function value (OFV), goodness-of-fit (GOF) plot, and robustness of parameter estimates. The ETA shrinkage was also taken into consideration when evaluating the models.
The covariates were prespecified based on their physiological and clinical relevance. […]

[3] = Exposure–safety analysis (logistic regression); format: in vivo, human; details: per increase in exposure (AUCss) of 1 ng∙h mL^–1 d^–1, all patients
Method: as §1
The exposure–safety relationships were characterized using the exposure metrics to the first occurrence of an event. The AEs of interest selected for analysis included hyperglycemia and proteinuria. The individual post hoc PK parameters from the final PopPK model and the first dosage were used to calculate the Cmin,ss, Cmax,ss, and AUCss at steady state, which were used as the exposure metrics. The exposure–safety analysis was performed using a logistic regression modeling approach.

[4] = 5th percentile age (25 years) vs median age (53 years)
[5] = 95th percentile age (71 years) vs median age (53 years)
[6] = ALKPOT 2 or 3 or 4 vs reference 1
[7] = ALKPOT 6 (healthy) vs reference 1
[8] = age 25 year vs reference 53 year, Figure 4
[9] = age 71 year vs reference 53 year, Figure 4

For `Cc1cc(Nc2ncc(Cl)c(Nc3ccccc3S(=O)(=O)C(C)C)n2)c2c(c1C1CCN(C)CC1)C[C@@H](C)O2` [SAF-189s], the antitumor effects [1] is given as “Strong antitumor effects”, the AUCss geometric mean ([2]; 160 mg QD dose) is given as 2,374 ng∙h mL^–1 and the AUC decrease [2, 4] is given as 21%. It also gave a CL/F increase [2, 4] of 27%, an AUC increase [2, 5] of 10% and a CL/F decrease [2, 5] of 8.8%. For the same compound, the “AUCss(ug*h/L) Ratio” value [2, 6] was 1.18, the “V/F(L) Ratio” value [2, 6] was 0.734 and the “AUCss(ug*h/L) Ratio” value ([2]; ALKPOT 5 (ROS1) vs reference 1) was 1.06. The “V/F(L) Ratio” value ([2]; ALKPOT 5 (ROS1) vs reference 1) was 0.917, the “AUCss(ug*h/L) Ratio” value [2, 7] was 0.979 and the “V/F(L) Ratio” value [2, 7] was 0.784. It also gave an AUCss higher ([2]; ALKPOT = 2, 3, 4 compared to ALKPOT = 1) of 18%, a V/F reduction ([2]; ALKPOT = 2, 3, 4 relative to ALKPOT = 1) of 26.6% and an AUCss higher ([2]; ALKPOT = 5 compared to ALKPOT = 1) of 6%. The V/F reduction ([2]; ALKPOT = 5 relative to ALKPOT = 1) was 8.3%, the V/F reduction ([2]; ALKPOT = 6 (healthy subjects) relative to ALKPOT = 1) was 21.6% and the AUCss lower ([2]; ALKPOT = 6 compared to ALKPOT = 1) was 2.1%. For the same compound, the “effect of prior anticancer therapy on AUCss” value ([2]; ALKPOT covariate) was “less than 20%”, the half-life ([2]; after the first dose, typical subjects (median age 53 years, ALK+ without previous ALK inhibitor treatment)) was 34.6 h and the “AUCss(ug*h/L) Ratio” value [2, 8] was 0.79. For the same compound, the “CL/F(L/h) Ratio” value [2, 8] was 1.27, the “AUCss(ug*h/L) Ratio” value [2, 9] was 1.1 and the “CL/F(L/h) Ratio” value [2, 9] was 0.912. For the same compound, the AUCss median value ([2]; exposure–safety analysis, all patients) was 2,233 ng∙h mL^–1, the “ALAG1 (tlag) typical value” ([2]; final PopPK model estimate) was 0.483 (±0.0306) h and 0.483 h and the CL1/F typical value ([2]; final PopPK model estimate) was 64 (±1.51) L h^–1 and 64 L h^–1. The CL2/F typical value ([2]; final PopPK model estimate) was 40.3 (±6.89) L h^–1 and 40.3 L h^–1, the KA typical value ([2]; final PopPK model estimate) was 0.501 (±0.0444) h^−1 and the V/F typical value ([2]; final PopPK model estimate) was 5,210(±339) L and 5,210 L. For the same compound, the KA typical value ([2]; final PopPK model estimate, Table 2) was 0.501 L h^–1, the “Interindividual variability ω^2 ALAG1” value ([2]; final model estimate) was 0.12 and the “Interindividual variability ω^2 CL” value ([2]; final model estimate) was 0.138. The “Interindividual variability ω^2 KA” value ([2]; final model estimate) was 0.279, the “Interindividual variability ω^2 V” value ([2]; final model estimate) was 0.125 and the “ALKPOT = 6 on V/F” value ([2]; healthy subjects, final model estimate) was 0.784. For the same compound, the ALAG1 bootstrap estimate ([2]; non-parametric bootstrap) was 0.491 h, the “ALKPOT = 2,3,4 on V/F bootstrap estimate” value ([2]; non-parametric bootstrap) was 0.724 and the “ALKPOT = 5 on V/F bootstrap estimate” value ([2]; non-parametric bootstrap) was 0.905. For the same compound, the “ALKPOT = 6 on V/F bootstrap estimate” value ([2]; non-parametric bootstrap) was 0.782, the CL1/F bootstrap estimate ([2]; non-parametric bootstrap) was 64 L h^–1 and the CL2/F bootstrap estimate ([2]; non-parametric bootstrap) was 40.5 L h^–1. For the same compound, the “Interindividual variability ω^2 ALAG1 bootstrap estimate” value ([2]; non-parametric bootstrap) was 0.106, the “Interindividual variability ω^2 CL bootstrap estimate” value ([2]; non-parametric bootstrap) was 0.138 and the “Interindividual variability ω^2 KA bootstrap estimate” value ([2]; non-parametric bootstrap) was 0.276. The “Interindividual variability ω^2 V bootstrap estimate” value ([2]; non-parametric bootstrap) was 0.121, the KA bootstrap estimate ([2]; non-parametric bootstrap) was 0.504 L h^–1 and the Kout bootstrap estimate ([2]; non-parametric bootstrap) was 1.35 day⁻¹. The V/F bootstrap estimate ([2]; non-parametric bootstrap) was 5,199 L, the “ALKPOT = 5 on V/F” value ([2]; others (ROS1+ patients or unknown), final model estimate) was 0.917 and the “ALKPOT = 2,3,4 on V/F” value ([2]; patients with previous ALK inhibitor treatment, final model estimate) was 0.734. The “Cmin,ss” value ([2]; quartile 1, estimated using the most prevalent dose) was 18–60.7 ng mL^–1, the “Cmin,ss” value ([2]; quartile 2, estimated using the most prevalent dose) was 60.7–79 ng mL^–1 and the “Cmin,ss” value ([2]; quartile 3, estimated using the most prevalent dose) was 79–108 ng mL^–1. For the same compound, the “Cmin,ss” value ([2]; quartile 4, estimated using the most prevalent dose) was 108–182 ng mL^–1, the half-life ([2]; steady state after multiple administrations, typical subjects) was “approximately 56.4 h” and the Kout ([2]; time-varying inhibition rate constant) was 1.35 (±0.421) day^−1. The Kout typical value ([2]; time-varying inhibition rate constant, Table 2) was 1.35 day⁻¹, the “OR for any-grade hyperglycemia” value ([3]; p < 0.001) was 3.521 and the “OR for grade ≥2 hyperglycemia” value ([3]; p < 0.001) was 7.662. The OR for proteinuria ([3]; p = 0.021) was 2.031.
